The text below walks through data of PubChem BioAssay AID1259407 (Chemical Carcinogenesis Research Information System (CCRIS), 2018).

The structures appear in SMILES notation. Activity calls are given as the source filed them. No rule for the calls is given here.

The data set has as its system CCRIS mutagenicity, Ames/micronucleus/aberration tests. Put plainly: CCRIS mutagenicity studies.
The mark [1] stands for this setting: Test System: AMES SALMONELLA TYPHIMURIUM, Strain/Indicator: TA100, Metabolic Activation: NONE, Method: PREINCUBATION
Setting [2] is: Test System: AMES SALMONELLA TYPHIMURIUM, Strain/Indicator: TA1535, Metabolic Activation: NONE, Method: STANDARD PLATE.
[3] abbreviates: Test System: AMES SALMONELLA TYPHIMURIUM, Strain/Indicator: TA98, Metabolic Activation: NONE, Method: STANDARD PLATE.
The mark [4] stands for this setting: Test System: AMES SALMONELLA TYPHIMURIUM, Strain/Indicator: TA100, Metabolic Activation: NONE, Method: STANDARD PLATE.
The mark [5] stands for this setting: Test System: AMES SALMONELLA TYPHIMURIUM, Strain/Indicator: TA98, Metabolic Activation: NONE, Method: PREINCUBATION
The mark [6] stands for this setting: Test System: AMES SALMONELLA TYPHIMURIUM, Strain/Indicator: TA1537, Metabolic Activation: NONE, Method: PREINCUBATION

`CCCCCCCCCC(=O)OCCN1CCN(CCCN2c3ccccc3Sc3ccc(C(F)(F)F)cc32)CC1`: the mutagenic call (Test System: AMES SALMONELLA TYPHIMURIUM, Strain/Indicator: TA98, Metabolic Activation: NONE) is “inactive; negative”; the mutagenic call (Test System: AMES SALMONELLA TYPHIMURIUM, Strain/Indicator: TA98, Metabolic Activation: RAT, LIVER, S-9, PHENOBARBITAL AND 5,6-BENZOFLAVONE) was “inactive; negative”; the mutagenic call under setting [1] is “inactive; negative”; the mutagenic call (Test System: AMES SALMONELLA TYPHIMURIUM, Strain/Indicator: TA100, Metabolic Activation: RAT, LIVER, S-9, PHENOBARBITAL AND 5,6-BENZOFLAVONE) was “inactive; negative”; the mutagenic call (Test System: AMES SALMONELLA TYPHIMURIUM, Strain/Indicator: TA1535, Metabolic Activation: NONE) is “inactive; negative”; the mutagenic call (Test System: AMES SALMONELLA TYPHIMURIUM, Strain/Indicator: TA1535, Metabolic Activation: RAT, LIVER, S-9, PHENOBARBITAL AND 5,6-BENZOFLAVONE) was “inactive; negative”. Moreover, the mutagenic call (Test System: AMES SALMONELLA TYPHIMURIUM, Strain/Indicator: TA1537, Metabolic Activation: NONE) is “inactive; negative”; the mutagenic call (Test System: AMES SALMONELLA TYPHIMURIUM, Strain/Indicator: TA1537, Metabolic Activation: RAT, LIVER, S-9, PHENOBARBITAL AND 5,6-BENZOFLAVONE) is “inactive; negative”; the mutagenic call (Test System: E. COLI, Strain/Indicator: WP2 UVRA, Metabolic Activation: NONE) was “inactive; negative”; the mutagenic call (Test System: E. COLI, Strain/Indicator: WP2 UVRA, Metabolic Activation: RAT, LIVER, S-9, PHENOBARBITAL AND 5,6-BENZOFLAVONE) is “inactive; negative”.
For `C[15NH][15N]=O`, the mutagenic call by setting is: under setting [2], “active; positive”; (Test System: E. COLI, Strain/Indicator: WP2, Metabolic Activation: NONE, Method: STANDARD PLATE) “active; positive”; (Test System: E. COLI, Strain/Indicator: WP2 UVRA, Metabolic Activation: NONE, Method: STANDARD PLATE) “active; positive”.
Consider `Cc1cc2ccccc2c2cc3c(cc12)C=C[C@H](O)[C@H]3O`, for which the mutagenic call (Test System: AMES SALMONELLA TYPHIMURIUM, Strain/Indicator: TA100, Metabolic Activation: RAT, LIVER, S-9, AROCLOR 1254, Method: PREINCUBATION) is “active; positive”.
`COC1=CC(=O)c2c(ncc3c4c([nH]c23)CCCC4)C1=O`: the mutagenic call runs as follows: (Test System: AMES SALMONELLA TYPHIMURIUM, Strain/Indicator: TA97A, Metabolic Activation: NONE, Method: STANDARD PLATE) “active; positive”; (Test System: AMES SALMONELLA TYPHIMURIUM, Strain/Indicator: TA97A, Metabolic Activation: RAT LIVER S-9, AROCLOR 1254, Method: STANDARD PLATE) “active; positive”; under setting [3], “active; positive”; (Test System: AMES SALMONELLA TYPHIMURIUM, Strain/Indicator: TA98, Metabolic Activation: RAT LIVER S-9, AROCLOR 1254, Method: STANDARD PLATE) “active; positive”; under setting [4], “active; positive”; (Test System: AMES SALMONELLA TYPHIMURIUM, Strain/Indicator: TA100, Metabolic Activation: RAT LIVER S-9, AROCLOR 1254, Method: STANDARD PLATE) “active; positive”. For the same compound, the mutagenic call runs as follows: (Test System: AMES SALMONELLA TYPHIMURIUM, Strain/Indicator: TA102, Metabolic Activation: NONE, Method: STANDARD PLATE) “inactive; negative”; (Test System: AMES SALMONELLA TYPHIMURIUM, Strain/Indicator: TA102, Metabolic Activation: RAT LIVER S-9, AROCLOR 1254, Method: STANDARD PLATE) “inactive; negative”.
Consider `Cc1c(C)c2c(Cl)c3ccccc3nc2c2ccccc12`, for which the mutagenic call reads like this: (Test System: AMES SALMONELLA TYPHIMURIUM, Strain/Indicator: TA97, Metabolic Activation: NONE, Method: PREINCUBATION) “active; positive”; (Test System: AMES SALMONELLA TYPHIMURIUM, Strain/Indicator: TA97, Metabolic Activation: NONE, Method: STANDARD PLATE) “active; positive”; under setting [5], “active; positive”; under setting [6], “active; positive”.
On to `NCCCCCCCCCCCC(=O)O`, for which the mutagenic call reads like this: under setting [5], “inactive; negative”; (Test System: AMES SALMONELLA TYPHIMURIUM, Strain/Indicator: TA98, Metabolic Activation: RAT LIVER S-9, PHENOBARBITAL AND BETA-NAPHTHOFLAVONE, Method: PREINCUBATION) “inactive; negative”; under setting [1], “inactive; negative”; (Test System: AMES SALMONELLA TYPHIMURIUM, Strain/Indicator: TA100, Metabolic Activation: RAT LIVER S-9, PHENOBARBITAL AND BETA-NAPHTHOFLAVONE, Method: PREINCUBATION) “inactive; negative”; (Test System: AMES SALMONELLA TYPHIMURIUM, Strain/Indicator: TA1535, Metabolic Activation: NONE, Method: PREINCUBATION) “inactive; negative”; (Test System: AMES SALMONELLA TYPHIMURIUM, Strain/Indicator: TA1535, Metabolic Activation: RAT LIVER S-9, PHENOBARBITAL AND BETA-NAPHTHOFLAVONE, Method: PREINCUBATION) “inactive; negative”. Besides, the mutagenic call is “inactive; negative” under setting [6]; “inactive; negative” (Test System: AMES SALMONELLA TYPHIMURIUM, Strain/Indicator: TA1537, Metabolic Activation: RAT LIVER S-9, PHENOBARBITAL AND BETA-NAPHTHOFLAVONE, Method: PREINCUBATION); “inactive; negative” (Test System: E.COLI, Strain/Indicator: WP2UVRA/PKM101, Metabolic Activation: NONE, Method: PREINCUBATION); “inactive; negative” (Test System: E.COLI, Strain/Indicator: WP2UVRA/PKM101, Metabolic Activation: RAT LIVER S-9, PHENOBARBITAL AND BETA-NAPHTHOFLAVONE, Method: PREINCUBATION).
For `C=C(C)C(=O)OCCCCC`, the mutagenic call runs as follows: under setting [3], “inactive; negative”; (Test System: AMES SALMONELLA TYPHIMURIUM, Strain/Indicator: TA98, Metabolic Activation: RAT, LIVER, S-9, AROCLOR 1254, Method: STANDARD PLATE) “inactive; negative”; (Test System: AMES SALMONELLA TYPHIMURIUM, Strain/Indicator: TA98, Metabolic Activation: RAT, LIVER, S-9, SODIUM PHENOBARBITAL, Method: STANDARD PLATE) “inactive; negative”; under setting [4], “inactive; negative”; (Test System: AMES SALMONELLA TYPHIMURIUM, Strain/Indicator: TA100, Metabolic Activation: RAT, LIVER, S-9, AROCLOR 1254, Method: STANDARD PLATE) “inactive; negative”; (Test System: AMES SALMONELLA TYPHIMURIUM, Strain/Indicator: TA100, Metabolic Activation: RAT, LIVER, S-9, SODIUM PHENOBARBITAL, Method: STANDARD PLATE) “inactive; negative”. For the same compound, the mutagenic call is “inactive; negative” under setting [2]; “inactive; negative” (Test System: AMES SALMONELLA TYPHIMURIUM, Strain/Indicator: TA1535, Metabolic Activation: RAT, LIVER, S-9, AROCLOR 1254, Method: STANDARD PLATE); “inactive; negative” (Test System: AMES SALMONELLA TYPHIMURIUM, Strain/Indicator: TA1535, Metabolic Activation: RAT, LIVER, S-9, SODIUM PHENOBARBITAL, Method: STANDARD PLATE); “inactive; negative” (Test System: AMES SALMONELLA TYPHIMURIUM, Strain/Indicator: TA1537, Metabolic Activation: NONE, Method: STANDARD PLATE); “inactive; negative” (Test System: AMES SALMONELLA TYPHIMURIUM, Strain/Indicator: TA1537, Metabolic Activation: RAT, LIVER, S-9, AROCLOR 1254, Method: STANDARD PLATE); “inactive; negative” (Test System: AMES SALMONELLA TYPHIMURIUM, Strain/Indicator: TA1537, Metabolic Activation: RAT, LIVER, S-9, SODIUM PHENOBARBITAL, Method: STANDARD PLATE). For the same compound, the mutagenic call (Test System: AMES SALMONELLA TYPHIMURIUM, Strain/Indicator: TA1538, Metabolic Activation: NONE, Method: STANDARD PLATE) is “inactive; negative”; the mutagenic call (Test System: AMES SALMONELLA TYPHIMURIUM, Strain/Indicator: TA1538, Metabolic Activation: RAT, LIVER, S-9, AROCLOR 1254, Method: STANDARD PLATE) is “inactive; negative”; the mutagenic call (Test System: AMES SALMONELLA TYPHIMURIUM, Strain/Indicator: TA1538, Metabolic Activation: RAT, LIVER, S-9, SODIUM PHENOBARBITAL, Method: STANDARD PLATE) was “inactive; negative”.
On to `CC1(C)CC(C(N)=O)C(C)(C)N1[O]` (configuration not stated), for which the mutagenic call under setting [4] was “inactive; negative”.
